US5436253A, “Pyridonecarboxylic acid derivatives and mycotic infections” (Daiichi Pharmaceutical Co., Ltd., priority 1993, dated 1995)

Legend:
Parameters in all cases: MIC Alone: unit not given beside the values
Details in all cases: antimycotic agent alone
Cryptococcus = test system: Cryptococcus
C. albicans = test system: C. albicans
Blastomyces dermatitidis = test system: Blastomyces dermatitidis

Row | Structure (SMILES) | MIC Alone (Cryptococcus) | MLC Alone (C. albicans) | MIC Alone (Blastomyces dermatitidis) | MIC Alone (C. albicans) | MLC Alone (Cryptococcus) | MLC Alone (Blastomyces dermatitidis)
1 | C[C@@H]1[C@H](O)[C@@H](C)/C=C/C=C/C=C/C=C/C=C/C=C/C=C/[C@H](O[C@@H]2O[C@H](C)[C@@H](O)[C@H](N)[C@@H]2O)C[C@@H]2O[C@](O)(C[C@@H](O)C[C@@H](O)[C@H](O)CC[C@@H](O)C[C@@H](O)CC(=O)O[C@H]1C)C[C@H](O)[C@H]2C(=O)O [AMB, amphotericin B] | 0.29 | > 4.62 | 0.29 |  |  | 
2 | OC(Cn1cncn1)(Cn1cncn1)c1ccc(F)cc1F [FLU, fluconazole] | 10 |  | 10 | 2.5 |  | 
3 | Clc1ccc(COC(Cn2ccnc2)c2ccc(Cl)cc2Cl)c(Cl)c1 (stereo not drawn) [MON, miconazole] |  |  |  | 1.25 | 5 | 5
